Experimental data taken from patent US8859571B2, “Quinazoline compounds” (GlaxoSmithKline LLC, priority 2009, dated 2014).
Where “and” joins values, the source holds several entries; their conditions need not be identical. Equal values may be shown once. Where a name gives a salt, the structure may show the parent alone.

Target: T1, Full length human TNNI3K (hTNNI3K) (Homo sapiens, UniProt Q59H18)
T1 construct: His-MBP-TEV-Full length human TNNI3K (hTNNI3K); His (N); MBP (N); TEV cleavage site (N); made in house; host or cells: baculovirus system (printed 'Baculokinase system')
T1 sequence (Q59H18 1-835): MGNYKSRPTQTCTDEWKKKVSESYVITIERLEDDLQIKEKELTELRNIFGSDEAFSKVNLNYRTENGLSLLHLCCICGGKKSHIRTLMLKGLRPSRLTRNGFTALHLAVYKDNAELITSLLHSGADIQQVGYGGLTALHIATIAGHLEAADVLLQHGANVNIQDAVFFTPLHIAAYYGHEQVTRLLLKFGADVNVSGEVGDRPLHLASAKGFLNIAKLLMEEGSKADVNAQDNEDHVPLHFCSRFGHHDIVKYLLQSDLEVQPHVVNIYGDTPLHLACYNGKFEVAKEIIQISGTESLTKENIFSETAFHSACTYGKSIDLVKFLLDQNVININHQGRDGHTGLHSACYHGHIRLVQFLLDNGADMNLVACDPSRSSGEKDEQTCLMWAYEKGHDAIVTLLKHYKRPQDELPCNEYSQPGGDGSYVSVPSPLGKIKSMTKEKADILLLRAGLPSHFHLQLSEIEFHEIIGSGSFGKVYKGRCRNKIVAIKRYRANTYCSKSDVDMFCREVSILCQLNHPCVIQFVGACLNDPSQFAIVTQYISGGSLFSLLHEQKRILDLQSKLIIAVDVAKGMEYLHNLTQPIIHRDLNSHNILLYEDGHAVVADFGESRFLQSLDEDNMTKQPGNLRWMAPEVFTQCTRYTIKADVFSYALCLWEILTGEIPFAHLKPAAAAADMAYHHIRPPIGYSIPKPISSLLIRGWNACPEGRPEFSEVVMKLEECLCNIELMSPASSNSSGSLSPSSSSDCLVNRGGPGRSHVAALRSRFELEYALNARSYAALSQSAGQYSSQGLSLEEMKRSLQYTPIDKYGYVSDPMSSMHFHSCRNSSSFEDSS
Experiment: Fluorescent polarization assay of compound inhibition on hTNNI3K ATP binding (Biological Assay Method I)
Settings: displacement of fluorescent ligand from hTNNI3K ATP binding pocket; mean of a minimum of 2 experiments; read-out: pXC50 (the source's name) (converted)
Excerpt: Materials: His-MBP-TEV-Full length human TNNI3K (hTNNI3K) was expressed in Baculokinase system and purified from amylase affinity column followed by Superdex200. The fluorescent ligand 5-({[2-({[3-({4-[(5-hydroxy-2-methylphenyl)amino]-2-pyrimidinyl}amino)phenyl]carbonyl}amino)ethyl]amino}carbonyl)-2-(6-hydroxy-3-oxo-3H-xanthen-9-yl)benzoic acid was used. The preparation of this fluorescent ligand is disclosed in U.S. Provisional Patent Application No. 61/237,815 filed Aug. 28, 2009, the disclosure of which is incorporated by reference herein. The other buffer components, including MgCl2 (Catalog Number M1028), Bis-Tris (Catalog Number B7535), DTT (Catalog Number D9779) and Chaps (Catalog Number C3023) were purchased from Sigma-Aldrich.
Biological Assay Method I:
A fluorescent polarization assay was used to determine does response of compound inhibition on hTNNI3K ATP binding.
Solution 1: Ten (10) mL of a 5 nM 5-({[2-({[3-({4-[(5-hydroxy-2-methylphenyl)amino]-2-pyrimidinyl}amino)phenyl]carbonyl}amino)ethyl]amino}carbonyl)-2-(6-hydroxy-3-oxo-3H-xanthen-9-yl)benzoic acid solution (Solution 1) was prepared by mixing 5 μL of 1M DTT and 80 μL of 10% (w/v) Chaps and 5 μL of a 10 μM 5-({[2-({[3-({4-[(5-hydroxy-2-methylphenyl)amino]-2-pyrimidinyl}amino)phenyl]carbonyl}amino) ethyl]amino}carbonyl)-2-(6-hydroxy-3-oxo-3H-xanthen-9-yl)benzoic acid stock solution into 9910 μL buffer (20 mM Tris, 15 mM MgCl2, pH 7.5). (Stock solution: 10 μM solution of 5-({[2-({[3-({4-[(5-hydroxy-2-methylphenyl)amino]-2-pyrimidinyl}amino)phenyl]carbonyl}amino)ethyl]amino}carbonyl)-2-(6-hydroxy-3-oxo-3H-xanthen-9-yl)benzoic acid in 100% DMSO)
Solution 2 was formed by mixing 53.8 μL of 2.6 μM hTNNI3K with a 6946.2 μL aliquot of Solution 1 (the above 5-({[2-({[3-({4-[(5-hydroxy-2-methylphenyl)amino]-2-pyrimidinyl}amino)phenyl]carbonyl}amino)ethyl]amino}carbonyl)-2-(6-hydroxy-3-oxo-3H-xanthen-9-yl)benzoic acid solution) to make up a 7 mL of mixture of hTNNI3K and 5-({[2-({[3-({4-[(5-hydroxy-2-methylphenyl)amino]-2-pyrimidinyl}amino)phenyl]carbonyl}amino)ethyl]amino}carbonyl)-2-(6-hydroxy-3-oxo-3H-xanthen-9-yl)benzoic acid (Solution 2).
Fifty (50) nL of inhibitors in DMSO (or DMSO controls) were stamped into a 384-well low volume Greiner black plate, followed by addition of 5 μL of Solution 1 to column 18 and 5 μL Solution 2 to columns 1-17 and 19-24 of the plate. The plate was then spun at 500 rpm for 30 seconds and incubated at room temperature for 60 minutes. After that, the fluorescent polarization was measured on Analyst (ex/em: 485/530 nm, Dichroic: 505). For dose response experiments, normalized data were fit by ABASE/XC50 and pXC50=(log((b−y)/(y−a)))/d−log(x), where x is the compound concentration and y is the % activity at specified compound concentration, a is the minimum % activity, b is the maximum % activity, and d is the Hill slope.
The pXC50s are averaged to determine a mean value, for a minimum of 2 experiments.

## CNS(=O)(=O)c1ccc(OC(C)C(F)(F)F)c(Nc2ncnc3cc(OC)cc(OC)c23)c1 (single isomer, unassigned) [Example 82, 3-{[5,7-bis(methyloxy)-4-quinazolinyl]amino}-N-methyl-4-[(2,2,2-trifluoro-1-methylethyl)oxy]benzenesulfonamide hydrochloride]
  IC50: 0.001 to 0.01 µM

## CNS(=O)(=O)c1ccc(N(C)C)c(Nc2ncnc3cc(OC)c(OC)cc23)c1 [Example 1, 3-{[6,7-bis(methyloxy)-4-quinazolinyl]amino}-4-(dimethylamino)-N-methylbenzenesulfonamide hydrochloride]
  IC50: 0.01 to 0.1 µM

## CNS(=O)(=O)c1ccc(N2CCOCC2)c(Nc2ncnc3cc(OC)c(OC)cc23)c1 [Example 3, 3-{[6,7-bis(methyloxy)-4-quinazolinyl]amino}-N-methyl-4-(4-morpholinyl)benzenesulfonamide trifluoroacetate]
  IC50: 0.01 to 0.1 µM and ~0.0794 µM

## CCN(C)c1ccc(S(=O)(=O)NC)cc1Nc1ncnc2cc(OC)c(OC)cc12 [Example 4, 3-{[6,7-bis(methyloxy)-4-quinazolinyl]amino}-4-[ethyl(methyl)amino]-N-methylbenzenesulfonamide]
  IC50: 0.01 to 0.1 µM

## CNS(=O)(=O)c1ccc(OC(C)C)c(Nc2ncnc3cc(OC)c(OC)cc23)c1 [Example 5, 3-{[6,7-bis(methyloxy)-4-quinazolinyl]amino}-N-methyl-4-[(1-methylethyl)oxy]benzenesulfonamide]
  IC50: 0.01 to 0.1 µM

## CNS(=O)(=O)c1ccc(N(C)C)c(Nc2ncnc3ccc(OC)cc23)c1 [Example 10, 4-(dimethylamino)-N-methyl-3-{[6-(methyloxy)-4-quinazolinyl]amino}benzene sulfonamide trifluoroacetate]
  IC50: 0.01 to 0.1 µM

## CNS(=O)(=O)c1ccc(OCC(F)(F)F)c(Nc2ncnc3cc(OC)c(OC)cc23)c1 [Example 11, 3-{[6,7-bis(methyloxy)-4-quinazolinyl]amino}-N-methyl-4-[(2,2,2-trifluoroethyl)oxy]benzenesulfonamide hydrochloride]
  IC50: 0.01 to 0.1 µM

## CNS(=O)(=O)c1ccc(N2CCC(F)(F)CC2)c(Nc2ncnc3cc(OC)c(OC)cc23)c1 [Example 14, 3-{[6,7-bis(methyloxy)-4-quinazolinyl]amino}-4-(4,4-difluoro-1-piperidinyl)-N-methylbenzenesulfonamide trifluoroacetate]
  IC50: 0.01 to 0.1 µM

## CNS(=O)(=O)c1ccc(N(C)C)c(Nc2ncnc3cc(OCCCCl)ccc23)c1 [Example 16, 3-({7-[(3-chloropropyl)oxy]-4-quinazolinyl}amino)-4-(dimethylamino)-N-methylbenzenesulfonamide]
  IC50: 0.01 to 0.1 µM

## CNS(=O)(=O)c1ccc(N(C)C)c(Nc2ncnc3cc(OCCOC)c(OCCOC)cc23)c1 [Example 17, 3-[(6,7-bis{[2-(methyloxy)ethyl]oxy}-4-quinazolinyl)amino]-4-(dimethylamino)-N-methylbenzenesulfonamide trifluoroacetate]
  IC50: 0.01 to 0.1 µM

## CNS(=O)(=O)c1ccc(OC)c(Nc2ncnc3cc(OCCOC)c(OCCOC)cc23)c1 [Example 18, 3-[(6,7-bis{[2-(methyloxy)ethyl]oxy}-4-quinazolinyl)amino]-N-methyl-4-(methyloxy) benzenesulfonamide hydrochloride]
  IC50: 0.01 to 0.1 µM

## CNS(=O)(=O)c1ccc(OCC(F)(F)F)c(Nc2ncnc3cc(OCCOC)c(OCCOC)cc23)c1 [Example 19, 3-[(6,7-bis{[2-(methyloxy)ethyl]oxy}-4-quinazolinyl)amino]-N-methyl-4-[(2,2,2-trifluoroethyl)oxy] benzenesulfonamide]
  IC50: 0.01 to 0.1 µM

## CNS(=O)(=O)c1ccc(SC)c(Nc2ncnc3cc(OCCOC)c(OCCOC)cc23)c1 [Example 20, 3-[(6,7-bis{[2-(methyloxy)ethyl]oxy}-4-quinazolinyl)amino]-N-methyl-4-(methylthio) benzenesulfonamide]
  IC50: 0.01 to 0.1 µM

## CNS(=O)(=O)c1ccc(N2CCC[C@@H]2C(F)(F)F)c(Nc2ncnc3cc(OC)c(OC)cc23)c1 [Example 21, 3-{[6,7-bis(methyloxy)-4-quinazolinyl]amino}-N-methyl-4-[(2R)-2-(trifluoromethyl)-1-pyrrolidinyl] benzenesulfonamide trifluoroacetate]
  IC50: 0.001 to 0.01 µM

## CNS(=O)(=O)c1ccc(N2CCC[C@@H]2C(F)(F)F)c(Nc2ncnc3ccc(Cl)cc23)c1 [Example 22, 3-[(6-chloro-4-quinazolinyl)amino]-N-methyl-4-[(2R)-2-(trifluoromethyl)-1-pyrrolidinyl] benzenesulfonamide trifluoroacetate]
  IC50: 0.01 to 0.1 µM

## CNS(=O)(=O)c1ccc(N2CCCCC2)c(Nc2ncnc3cc(OC)c(OC)cc23)c1 [Example 25, 3-{[6,7-bis(methyloxy)-4-quinazolinyl]amino}-N-methyl-4-(1-piperidinyl) benzenesulfonamide trifluoroacetate]
  IC50: 0.001 to 0.01 µM

## CNS(=O)(=O)c1ccc(N2CCCCC2)c(Nc2ncnc3ccc(Cl)cc23)c1 [Example 26, 3-[(6-chloro-4-quinazolinyl)amino]-N-methyl-4-(1-piperidinyl) benzenesulfonamide trifluoroacetate]
  IC50: 0.01 to 0.1 µM

## CNS(=O)(=O)c1ccc(N2C(C)CCC2C)c(Nc2ncnc3cc(OC)c(OC)cc23)c1 (stereo not shown) [Example 27, 3-{[6,7-bis(methyloxy)-4-quinazolinyl]amino}-4-(2,5-dimethyl-1-pyrrolidinyl)-N-methylbenzenesulfonamide trifluoroacetate]
  IC50: 0.001 to 0.01 µM

## CNS(=O)(=O)c1ccc(N2C(C)CCC2C)c(Nc2ncnc3ccc(Cl)cc23)c1 (stereo not shown) [Example 28, 3-[(6-chloro-4-quinazolinyl)amino]-4-(2,5-dimethyl-1-pyrrolidinyl)-N-methylbenzenesulfonamide trifluoroacetate]
  IC50: 0.01 to 0.1 µM

## CNS(=O)(=O)c1cccc(Nc2ncnc3cc(OC)cc(OC)c23)c1 [Example 30, 3-{[5,7-bis(methyloxy)-4-quinazolinyl]amino}-N-methylbenzenesulfonamide hydrochloride]
  IC50: 0.01 to 0.1 µM

## CNS(=O)(=O)c1ccc(OCC(F)(F)F)c(Nc2ncnc3cc(OC)cc(OC)c23)c1 [Example 31, 3-{[5,7-bis(methyloxy)-4-quinazolinyl]amino}-N-methyl-4-[(2,2,2-trifluoroethyl)oxy]benzenesulfonamide hydrochloride]
  IC50: 0.001 to 0.01 µM

## CNS(=O)(=O)c1ccc(N(C)C)c(Nc2ncnc3cc(OC)cc(OC)c23)c1 [Example 32, 3-{[5,7-bis(methyloxy)-4-quinazolinyl]amino}-4-(dimethylamino)-N-methylbenzenesulfonamide]
  IC50: 0.001 to 0.01 µM
